Data: paper PMC8546421, “Molecular modelling of the FOXO4-TP53 interaction to design senolytic peptides for the elimination of senescent cancer cells” (EBioMedicine, 2021)
Entries after “also recorded” stand apart in the source; their conditions may differ. Read-outs that look alike come from different tables or passages of the source. Where no end group is shown, it is not given here.

How the values were obtained:
GFP = GFP (Aequorea victoria, UniProt P42212); assay: Bio-layer Interferometry, GFP; type: binding; details: BLI
Description: Bio-layer Interferometry (BLI) measurements were performed on a ForteBio Octet RED384 instrument (Molecular Devices) using ForteBio Data Acquisition software 9.0 and ForteBio biosensors (Molecular Devices) according to the manufacturer's instructions. Kinetic assays were carried out at 30°C using settings of Standard Kinetics Acquisition rate (5.0 Hz, averaging by 20) at a sample plate shake speed of 1,000 rpm. Streptavidin sensors (SA) (ForteBio) equilibrated in PBS were mock loaded (no ligand reference sensor) or loaded with 50 nM of N- terminal biotinylated ES2 peptide (New England Peptide, Inc.) with an approximate response of 1 nm. Ligand loaded SA sensors equilibrated in Kinetics buffer (ForteBio) to establish a baseline, were dipped into wells containing 2-fold dilutions of TP53 (Millipore Sigma Aldrich; Cat# 23-034), FOXO4 (OriGene Technologies; Cat# TP760655) or GFP analytes in kinetics buffer, or buffer alone (reference sample). […] Binding curves were analysed using ForteBio Data Analysis HT 10.0 evaluation software. […] Equilibrium dissociation constants KD which defines the strength of the interaction or affinity was calculated as the kinetic dissociation rate constant divided by the kinetic association rate constant.

FOXO4 = molecular target: T1, FOXO4 (Homo sapiens, UniProt P98177); assay: Bio-layer Interferometry, FOXO4; type: binding
T1 construct: purchased OriGene Technologies TP760655
Description: Bio-layer Interferometry (BLI) measurements were performed on a ForteBio Octet RED384 instrument (Molecular Devices) using ForteBio Data Acquisition software 9.0 and ForteBio biosensors (Molecular Devices) according to the manufacturer's instructions. Kinetic assays were carried out at 30°C using settings of Standard Kinetics Acquisition rate (5.0 Hz, averaging by 20) at a sample plate shake speed of 1,000 rpm. Streptavidin sensors (SA) (ForteBio) equilibrated in PBS were mock loaded (no ligand reference sensor) or loaded with 50 nM of N- terminal biotinylated ES2 peptide (New England Peptide, Inc.) with an approximate response of 1 nm. Ligand loaded SA sensors equilibrated in Kinetics buffer (ForteBio) to establish a baseline, were dipped into wells containing 2-fold dilutions of TP53 (Millipore Sigma Aldrich; Cat# 23-034), FOXO4 (OriGene Technologies; Cat# TP760655) or GFP analytes in kinetics buffer, or buffer alone (reference sample). Increasing concentrations of analytes ranging from 6.2 - 200 nM were allowed to associate for 240 secs, followed by 600 sec dissociation step where the TP53/FOXO4-bound sensors were washed with kinetics buffer. Binding curves were analysed using ForteBio Data Analysis HT 10.0 evaluation software. To control for background signal and non-specific binding, raw experimental data were processed by subtracting reference biosensor and reference sample (no ligand). Processed data from at least six different concentrations of analyte binding were globally fit to a 1:1 Langmuir binding model to calculate the association rate constant ka, the dissociation rate constant kd to achieve R^2 > 0.90. Equilibrium dissociation constants KD which defines the strength of the interaction or affinity was calculated as the kinetic dissociation rate constant divided by the kinetic association rate constant.

senescent A375 cells = assay: Peptide efficacy in culture (MTS), senescent cells; type: cell-based, human
Description: (§1) Cell lines were treated with chemotherapy, doxorubicin (Sigma, Cat. No. 2252) to induce senescence (200 nM for HCT116, 100 nM for B16-F10 and MCF7, 50 nM for SW480 and DLD-1, 40 nM for A375-Luc/iRFP and MCF10a). MCF7 cells were treated with CDK4/6 inhibitor, palbociclib (Selleck Chemicals: S1116) to induce senescence (5 µM). A375 cells were treated with Braf inhibitor, Dabrafenib (Selleck Chemicals: S2807), to induce senescence (10 µM). Peptide efficacy experiments were performed by seeding 10,000 – 20,000 cells in a 96-well plate. The cells were given doxorubicin twice to make the cells senescent. After removal of doxorubicin, the plate was treated with varying concentrations of peptide. The peptide was replenished daily for two days. Cellular proliferation was quantified using the Promega CellTiter 96™ AQueous One Solution Cell Proliferation Assay (MTS) after 2 hours according to the manufacturer's protocol (Promega, G3581). To control for the charge of ES2, ProteoJuice (Millipore Sigma, 71281) was used to deliver ES2 using the manufacturers protocol, except 50 µL of 2 mM ES2 was mixed with 25 µL of ProteoJuice. Varying concentrations of the mixture were administered to A375 cells along with a control of only ProteoJuice.

[1] = test system: A375, B16F10, HCT116, MCF7, IMR90 and MCF10A cells; assay: ES2 viability (MTS) in cell line panel, senescent vs dividing; type: cell-based
Description: as §1

T1 sequence (P98177 whole entry): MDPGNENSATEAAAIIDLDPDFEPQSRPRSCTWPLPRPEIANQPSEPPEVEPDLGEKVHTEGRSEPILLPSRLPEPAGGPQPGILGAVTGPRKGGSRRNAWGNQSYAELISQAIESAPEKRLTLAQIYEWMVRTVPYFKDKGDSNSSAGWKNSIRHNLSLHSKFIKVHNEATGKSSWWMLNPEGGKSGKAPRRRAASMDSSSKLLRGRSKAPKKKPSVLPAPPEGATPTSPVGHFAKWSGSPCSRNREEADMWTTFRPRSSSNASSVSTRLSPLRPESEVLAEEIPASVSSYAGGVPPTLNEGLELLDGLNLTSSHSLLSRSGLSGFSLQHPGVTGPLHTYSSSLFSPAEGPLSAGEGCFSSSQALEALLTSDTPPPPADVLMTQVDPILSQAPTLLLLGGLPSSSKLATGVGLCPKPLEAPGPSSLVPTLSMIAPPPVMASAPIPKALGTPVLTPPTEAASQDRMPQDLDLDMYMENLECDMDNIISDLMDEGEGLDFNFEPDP

PRKGGRRRRAWGRRRRRRRRRRRRRRAPRKRLTLA [ES2]
Kd (GFP; biotinylated ES2 on streptavidin sensors, 30°C, NB – no binding): > 200 nM | binding of GFP (in words) (GFP; six 2-fold dilutions of GFP starting at 200nM): minimal binding of GFP; also recorded: no binding was detected | affinity for FOXO4 compared to TP53 (FOXO4; BLI KD ratio): approximately 4 fold | kon (FOXO4; BLI, 1:1 Langmuir binding model, read-out: association rate ka): 117000 M⁻¹ s⁻¹ | kd (FOXO4; BLI, biotinylated ES2 immobilized on streptavidin sensors, analyte 6.25-200 nM, 30°C, global 1:1 Langmuir fit): 7.7e-05 ± 7.2e-07 s⁻¹ | kon (FOXO4; BLI, biotinylated ES2 immobilized on streptavidin sensors, analyte 6.25-200 nM, 30°C, global 1:1 Langmuir fit, read-out: ka): 120000 M⁻¹ s⁻¹ | Kd (FOXO4; BLI, biotinylated ES2 immobilized on streptavidin sensors, analyte 6.25-200 nM, 30°C, kd/ka): 0.66 ± 0.01 nM | cell death (senescent A375 cells; A375 cells, ProteoJuice control experiment, highest concentration): 80% | effect of delivery with ProteoJuice on senolytic activity (senescent A375 cells; ES2 delivered with ProteoJuice vs ES2 alone, senescent A375 cells, n=5): had no effect on viability in senescent cells compared to ES2 alone; also recorded: no difference in senolytic activity | IC50 (senescent A375 cells; doxorubicin (40 nM)-induced senescent A375 cells, peptide replenished daily for two days, MTS, best fit polynomial, read-out: IC50^sen, concentration to kill 50% of senescent cells): ~7000 nM | senolytic activity (in words) (senescent A375 cells; senescent vs dividing A375 cells): highest senolytic activity | concentration of ES2 resulting in cell death, doxorubicin vs other pro-senescence agents ([1]; A375 with Dabrafenib, MCF7 with Palbociclib): no difference in concentration of ES2 resulting in cell death | IC50 in dividing cells relative to senescent cells ([1]; doxorubicin-induced senescence, all cell lines): at least 3 times
